The values below come from patent publication US6372717B1, “Synthetic peptides and their use in cosmetic or dermopharmaceutical compositions” (Sederma S.A., priority 1999, dated 2002).

The experiment has as its system human skin. Briefly: activity by topical application. The experiment is classed as in vivo. From the text:
The object of the present invention is the discovery that this peptide, and above all the lipophile derivatives of the peptide, have a calming, antalgic activity when applied to the human skin in a suitable cosmetic or dermopharmaceutical preparation.

Structures are written as SMILES.

Turning to `N=C(N)NCCC[C@H](NC(=O)[C@@H](N)Cc1ccc(O)cc1)C(=O)O` [H-L-Tyr-L-Arg-OH], the “activity by topical application” value is “only a slight activity”.
